In assay [1] the target is T1, Sodium-dependent dopamine transporter (Homo sapiens, UniProt Q01959). Description: Inhibitory concentration required for [3H]dopamine uptake; not being isolated. It is filed as functional.
Assay [2] concerns the target T1, Sodium-dependent dopamine transporter. Description: Ability to displace [3H]mazindol to dopamine receptor; not being isolated.
The target is the same in assay [3]. The experiment in a line: Displacement of [3H]mazindol from dopamine transporter. (In general: Loss of bound radioactivity is the signal in a displacement assay; it reports binding, not function.)
Assay [4] shares this target. Description: Inhibitory concentration against [3H]dopamine uptake. The assay is classed as functional.
The target is the same in assay [5]. The experiment in a line: Ability to displace [3H]mazindol from dopamine transporter.
For assay [6] the target is unchanged. The experiment in a line: Binding constant for [3H]dopamine uptake was calculated from the Cheng-Prusoff relationship.
For assay [7] the target is unchanged. The experiment in a line: Binding constant for the ability to displace [3H]mazindol to dopamine receptor was calculated from the Cheng-Prusoff relationship.
The target is the same in assay [8]. The experiment in a line: Ability to displace [3H]-Mazindol from dopamine receptor.

The term pIC50 denotes the IC50 on a negative log10 scale, so that one unit is a factor of ten. A higher pIC50 goes with a low IC50. By pKi is commonly meant the negative decadic logarithm of the Ki, by convention in mol/L.

Molecules are shown by their SMILES. pIC50, pKi: −log10 of the molar value. “And” between values parts separate entries of the source, which are not always exact repeats. Equal values may be shown once.

T1 sequence (Q01959 whole entry): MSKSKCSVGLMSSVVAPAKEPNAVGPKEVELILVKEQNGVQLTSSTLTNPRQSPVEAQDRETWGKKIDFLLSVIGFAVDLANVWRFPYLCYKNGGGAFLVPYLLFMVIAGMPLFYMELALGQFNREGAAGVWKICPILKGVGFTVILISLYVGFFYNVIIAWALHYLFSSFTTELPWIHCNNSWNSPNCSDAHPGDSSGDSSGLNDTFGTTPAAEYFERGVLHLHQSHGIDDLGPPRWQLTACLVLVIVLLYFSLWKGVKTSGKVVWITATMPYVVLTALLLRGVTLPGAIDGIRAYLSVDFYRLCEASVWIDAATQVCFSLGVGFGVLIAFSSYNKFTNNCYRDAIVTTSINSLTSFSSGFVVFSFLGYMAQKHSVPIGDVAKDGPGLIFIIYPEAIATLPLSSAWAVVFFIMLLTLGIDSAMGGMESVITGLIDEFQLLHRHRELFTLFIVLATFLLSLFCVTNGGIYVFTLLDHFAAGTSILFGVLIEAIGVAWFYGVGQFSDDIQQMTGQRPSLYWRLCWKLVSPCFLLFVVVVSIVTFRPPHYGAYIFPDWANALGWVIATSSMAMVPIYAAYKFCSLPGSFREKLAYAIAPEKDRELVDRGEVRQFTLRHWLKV

Turning to `CN1C2CCC1[C@@H]([C@H](O)C(F)(F)F)[C@@H](c1ccc(Cl)cc1)C2` (stereo partly specified), the IC50 result in assay [1] and in assay [2] was “not isolated” each time.
For `CN1C2CCC1[C@H](C(O)C(F)(F)F)[C@@H](c1ccc(Cl)cc1)C2` (stereo in doubt; 13), the pIC50 in assay [3] was 5.96; in assay [4], 6.28.
On to `COC(=O)C1C2CC[C@H](C[C@@H]1c1ccc(Cl)cc1)N2C` (stereo partly specified), for which the pIC50 in assay [5] is 8.77; in assay [4], 8.49.
Take `CN1C2CCC1[C@H](C(=O)C(F)(F)F)[C@@H](c1ccc(Cl)cc1)C2` (stereo partly specified): the pIC50 in assay [3] is 5.92; in assay [4], 6.42.
As for `CN1C2CCC1[C@@H](/C=C/Cl)[C@@H](c1ccc(Cl)cc1)C2` (stereo in doubt; 5), the pKi in assay [6] was 9.06; in assay [7], 9.66. Besides, the pIC50 in assay [3] was 9.44; in assay [4], 9.00.
With `CN1C2CCC1[C@H](/C=C/Cl)[C@@H](c1ccc(Cl)cc1)C2` (stereo partly specified), the pIC50 in assay [3] was 7.62 and 7.74; in assay [4] it was 7.72 and 7.80.
For the compound `CC[C@@H]1C2CCC(C[C@@H]1c1ccc(Cl)cc1)N2C` (stereo partly specified), the negative logarithm of the IC50 (pIC50) in assay [3] was 8.46; in assay [4], 8.59.
With `CN1C2CCC1[C@@H]([C@@H](O)C(F)(F)F)[C@@H](c1ccc(Cl)cc1)C2` (stereo partly specified), the figures for the pIC50 in assay [3] and in assay [4] were 8.04 and 7.98, respectively.
`CN1C2CCC1[C@@H](/C=C/Cl)[C@@H](c1ccc(Cl)cc1)C2` (stereo in doubt; 4): the results for the pIC50 in assay [3] and in assay [4] were 9.14 and 8.89, respectively.
For `CN1C2CCC1[C@H](C(O)C(F)(F)F)[C@@H](c1ccc(Cl)cc1)C2` (stereo in doubt; 12), in that order: 6.78 and 6.90.
On to `CN1C2CCC1[C@@H](C(=O)C(F)(F)F)[C@@H](c1ccc(Cl)cc1)C2` (stereo partly specified), for which the IC50 result in assay [1] and in assay [2] was “not isolated” throughout.
Take `C=C[C@@H]1C2CCC(C[C@@H]1c1ccc(Cl)cc1)N2C` (stereo partly specified): the pIC50 was 8.92 in assay [8] and 8.55 in assay [4].
